Measured values: patent publication US11477982B2, “2-amino-5-oxyalkyl-pyrimidine derivatives and their use for controlling undesired plant growth” (Bayer CropScience Aktiengesellschaft, priority 2017, dated 2022)

Tests used:
Type in all cases: in vivo
[1] = system: ABUTH: Abutilon theophrasti; assay: Post-emergence herbicidal effect; details: dosage 320 g/ha
Protocol: (§1) 2. Post-Emergence Herbicidal Effect and Crop Plant Compatibility
(§2) Seeds of monocotyledonous and dicotyledonous weeds and crop plants are placed in sandy loam in plastic or wood-fiber pots, covered with soil and cultivated in a greenhouse under controlled growth conditions, 2 to 3 weeks after sowing, the test plants are treated at the one-leaf stage. The compounds of the invention, formulated in the form of wettable powders (WP) or as emulsion concentrates (EC), are then sprayed onto the green parts of the plants as aqueous suspension or emulsion with addition of 0.5% additive at a water application rate of 600 l/ha (converted). After the test plants had been kept in the greenhouse under optimum growth conditions for about 3 weeks, the activity of the preparations is rated visually in comparison to untreated controls. For example, 100% activity=the plants have died, 0% activity=like control plants.

[2] = system: ECHCG: Echinochloa crus-galli; assay: Post-emergence herbicidal effect; details: dosage 320 g/ha
Protocol: as §1, §2

VERPE: Veronica persica [3] = assay: Post-emergence herbicidal effect; details: dosage 320 g/ha
Protocol: as §1, §2

VIOTR: Viola tricolor [4] = assay: Post-emergence herbicidal effect; details: dosage 320 g/ha
Protocol: as §1, §2

STEME: Stellaria media [5] = assay: Post-emergence herbicidal effect; details: dosage 320 g/ha
Protocol: as §1, §2

SETVI: Setaria viridis [6] = assay: Post-emergence herbicidal effect; details: dosage 320 g/ha
Protocol: as §1, §2

[7] = system: AMARE: Amaranthus retroflexus; assay: Post-emergence herbicidal effect; details: dosage 320 g/ha
Protocol: as §1, §2

[8] = system: ABUTH: Abutilon theophrasti; assay: Pre-emergence herbicidal effect; details: for Herbicidal action against ABUTH: dosage 320 g/ha
Text: (§3) 1. Pre-Emergence Herbicidal Effect and Crop Plant Compatibility
(§4) Seeds of monocotyledonous and dicotyledonous weed plants and crop plants are placed in plastic or wood fiber pots and covered with soil. The compounds of the invention, formulated in the form of wettable powders (WP) or as emulsion concentrates (EC), are then applied onto the surface of the covering soil as aqueous suspension or emulsion with addition of 0.5% additive at a water application rate of 600 l/ha (converted).
(§5) After the treatment, the pots are placed in a greenhouse and kept under good growth conditions for the trial plants. After about 3 weeks, the effect of the preparations is scored visually in comparison with untreated controls as percentages. For example, 100% activity=the plants have died, 0% activity=like control plants.

[9] = system: ALOMY: Alopecurus myosuroides; assay: Pre-emergence herbicidal effect; details: for Herbicidal action against ALOMY: dosage 320 g/ha
Text: as §3, §4, §5

[10] = system: ECHCG: Echinochloa crus-galli; assay: Pre-emergence herbicidal effect; details: for Herbicidal action against ECHCG: dosage 320 g/ha
Text: as §3, §4, §5

HORMU: Hordeum murinum = assay: Pre-emergence herbicidal effect; details: for Herbicidal action against HORMU: pre-emergence, dosage 320 g/ha
Text: as §3, §4, §5

LOLRI: Lolium rigidum = assay: Pre-emergence herbicidal effect; details: for Herbicidal action against LOLRI: dosage 320 g/ha
Text: as §3, §4, §5

[11] = system: POLCO: Polygonum convolvulus; assay: Pre-emergence herbicidal effect; details: for Herbicidal action against POLCO: dosage 320 g/ha
Text: as §3, §4, §5

AVEFA: Avena fatua = assay: Pre-emergence herbicidal effect; details: dosage 320 g/ha
Text: as §3, §4, §5

VERPE: Veronica persica [12] = assay: Pre-emergence herbicidal effect; details: dosage 320 g/ha
Text: as §3, §4, §5

VIOTR: Viola tricolor [13] = assay: Pre-emergence herbicidal effect; details: dosage 320 g/ha
Text: as §3, §4, §5

[14] = system: MATIN: Matricaria inodora; assay: Pre-emergence herbicidal effect; details: for Herbicidal action against MATIN: pre-emergence, dosage 320 g/ha
Text: as §3, §4, §5

STEME: Stellaria media [15] = assay: Pre-emergence herbicidal effect; details: for Herbicidal action against STEME: pre-emergence, dosage 320 g/ha
Text: as §3, §4, §5

PHBPU: Ipomoea purpurea = assay: Pre-emergence herbicidal effect; details: for Herbicidal action against PHBPU: dosage 320 g/ha
Text: as §3, §4, §5

SETVI: Setaria viridis [16] = assay: Pre-emergence herbicidal effect; details: for Herbicidal action against SETVI: dosage 320 g/ha
Text: as §3, §4, §5

[17] = system: AMARE: Amaranthus retroflexus; assay: Pre-emergence herbicidal effect; details: for Herbicidal action against AMARE: pre-emergence, dosage 320 g/ha
Text: as §3, §4, §5

[18] = Table 4a, dosage 20 g of a.i./ha
[19] = Table 4a, pre-emergence, dosage 20 g of a.i./ha
[20] = Table 4b, pre-emergence as titled, dosage 80 g of a.i./ha

SMILES	Herbicidal action against ABUTH [1] [%]	Herbicidal action against ECHCG [2] [%]	Herbicidal action against VERPE (VERPE: Veronica persica [3]) [%]	Herbicidal action against VIOTR (VIOTR: Viola tricolor [4]) [%]	Herbicidal action against STEME (STEME: Stellaria media [5]) [%]	Herbicidal action against SETVI (SETVI: Setaria viridis [6]) [%]	Herbicidal action against AMARE [7] [%]	Herbicidal action against ABUTH [8] [%]	Herbicidal action against ALOMY ([9]; pre-emergence) [%]	Herbicidal action against ECHCG ([10]; pre-emergence) [%]	Herbicidal action against HORMU (HORMU: Hordeum murinum) [%]	Herbicidal action against LOLRI (LOLRI: Lolium rigidum) [%]	Herbicidal action against POLCO [11] [%]	Herbicidal action against AVEFA (AVEFA: Avena fatua) [%]	Herbicidal action against VERPE (VERPE: Veronica persica [12]) [%]	Herbicidal action against VIOTR (VIOTR: Viola tricolor [13]) [%]	Herbicidal action against MATIN [14] [%]	Herbicidal action against STEME (STEME: Stellaria media [15]) [%]	Herbicidal action against PHBPU (PHBPU: Ipomoea purpurea) [%]	Herbicidal action against SETVI (SETVI: Setaria viridis [16]; pre-emergence) [%]	further results
Cc1ccc2c(c1)C(Nc1ncc(C(C)(C)O)cn1)CCC2 (racemic) [Example 1.43]	90	100	90	90	100	90	90	100	100	100	100	100	100	100	100	100	100	100	100	100	Herbicidal action against AMARE [17]: 100%
Cc1ccc2c(c1)C(Nc1ncc(C(C)(C)O)c(C)n1)CCC2 (racemic) [Example 1.52]	90	100	90	90	100	80	90	100	100	100	100	100	100	100	100	100	100	100	100	100	Herbicidal efficacy against ABUTH [8, 18]: 100; Herbicidal efficacy against ALOMY [9, 19]: 90; Herbicidal efficacy against ALOMY [9, 20]: 90; Herbicidal efficacy against ECHCG [10, 19]: 100; Herbicidal efficacy against ECHCG [10, 20]: 70; Herbicidal efficacy against HORMU (HORMU: Hordeum murinum; [20]): 90; Herbicidal efficacy against LOLRI (LOLRI: Lolium rigidum; [18]): 60; Herbicidal efficacy against POLCO [11, 18]: 100; Herbicidal efficacy against MATIN [14, 20]: 70; Herbicidal efficacy against STEME (STEME: Stellaria media [15]; [20]): 90; Herbicidal efficacy against PHBPU (PHBPU: Ipomoea purpurea; [18]): 100; Herbicidal efficacy against SETVI (SETVI: Setaria viridis [16]; [19]): 100; Herbicidal efficacy against SETVI (SETVI: Setaria viridis [16]; [20]): 80; Herbicidal efficacy against AMARE [17, 20]: 80; Herbicidal action against AMARE [17]: 100%
Cc1ccc2c(c1)[C@H](Nc1ncc(C(C)(C)O)cn1)CC2 [Example 1.5]	100	100	90	90	100	90	100	100	100	100	100	100	100	100	100	100	100	100	100	100	Herbicidal action against AMARE [17]: 100%
